Source: patent US9322034B2, “Compositions and methods for detecting and modulating cell death by a translation regulated gene expression system” (Wayne State University, priority 2007, dated 2016)
Where a SMILES comes first, the peptide text is derived from it. The star is where a group is joined. Cbz = O=C(OCc1ccccc1)*

How the values were obtained:
[1] = tested on: HEK293 cells; assay: Trypan blue staining of HEK293 cells treated with toxic agents; type: cell-based, human; conditions: 50 micromolar, within 24 hr
[2] = tested on: HEK293 cell pools expressing the fLUC-TRplp-EYFP, fLUC-TRdm-EYFP, pcuLf-TRplp-EYFP or pcuLf-TRdm-EYFP expression cassettes; assay: Cytotoxicity assay by Western blot, bicistronic TR cassettes; type: cell-based, human; conditions: toxic doses
[3] = tested on: HEK293 or HT1080 cells transduced with rAAV TRplp-EYFP / TRdm-EYFP; assay: TR-EYFP translation after rAAV transduction; type: cell-based, human; conditions: 25 μM, 24 hr
Description: This example is to show delivery of the TRplp-EYFP and TRdm-EYFP cassettes to HEK293 and HT1080 cells using rAAV transduction. HEK293 or HT1080 cells are plated on flame sterilized glass slides and grown until 60-70% confluent (1-2 days), washed with L-DMEM (DMEM containing 2% fetal bovine serum), and infected with rAAV for 2 hr. The medium is replaced with DMEM, 10% FBS and the cells are incubated for 24 hours. Infected cells are treated with DMEM, 10% FBS supplemented with toxic levels of MG132 (25 μM) for 24 hr prior to direct microscopic or Western analysis as described above.

[4] = Pro-drug induced cell death, Trypan blue cell viability assay, control cells; type: cell-based; conditions: human, HEK293 or HEK CMV-EYFP cells (control cells); any concentration (10 nM to 10 μM), 3 or 4 days; read-out: cells remaining Trypan blue viable
Description: (§1) In this example, HEK293, HEK CMV-EYFP, and HEK TRplp-TKsr39 cells are treated with various amounts of the pro-drug ganciclovir and tested for cell death after 4 days incubation using the Trypan blue staining assay. Cells are plated into 6-well trays, grown to 70-80% confluence, and treated with DMEM, 10% FBS supplemented with ganciclovir (0, 10 nM, 100 nM, 1 μM, 5 μM or 10 μM) for 4 days. Viable cell counts are performed at 3 days and 4 days post-incubation (FIG. 13).

[5] = target: TKsr39 protein (Human herpesvirus 1, UniProt Q9QNF7, A168F/F161L/I160F/L159I/L169M); conditions: TKsr39 versus wildtype TK protein; cited from earlier work
[6] = tested on: HEK293 TRplp-TKsr39 cells; assay: Pro-drug induced cell death, Trypan blue cell viability assay; type: cell-based, human
Description: as §1

Chain of TKsr39 protein (Q9QNF7 whole entry A168F/F161L/I160F/L159I/L169M, looked up): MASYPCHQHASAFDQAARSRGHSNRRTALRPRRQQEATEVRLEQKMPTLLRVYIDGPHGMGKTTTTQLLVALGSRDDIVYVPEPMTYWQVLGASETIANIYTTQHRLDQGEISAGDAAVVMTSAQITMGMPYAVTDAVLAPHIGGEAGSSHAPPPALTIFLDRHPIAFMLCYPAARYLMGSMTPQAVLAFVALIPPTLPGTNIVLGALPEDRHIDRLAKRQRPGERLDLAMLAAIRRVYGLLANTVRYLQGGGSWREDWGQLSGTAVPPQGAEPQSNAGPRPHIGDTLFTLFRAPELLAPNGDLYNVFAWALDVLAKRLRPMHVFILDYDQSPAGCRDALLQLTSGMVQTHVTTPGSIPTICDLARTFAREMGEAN

Compound | cell death in HEK293 cells as determined by Trypan blue staining [1] | EYFP translation in cell pools expressing the bicistronic TR cassettes (Western blot, FIG. 4) [2] | translation of EYFP in rAAV transduced cells compared to uninfected control cells [3] | viability [4] [%] | prodrug binding of TKsr39 protein, higher than the wildtype protein [5] [fold] | cell viability compared to untreated cells ([6]; 10 nM, 3 days) | cell viability compared to untreated cells ([6]; 100 nM, 3 days) | viability at 10 µM ([6]; Homo sapiens, HEK293, 72 h, 3 days) [%] | viability at 0.01 µM ([6]; Homo sapiens, HEK293, 96 h, 10 nM, 4 days) [%] | viability at 10 µM ([6]; Homo sapiens, HEK293, 96 h, 4 days) [%]
CC(C)C[C@@H](C=O)NC(=O)[C@H](CC(C)C)NC(=O)[C@H](CC(C)C)NC(=O)OCc1ccccc1 [MG132] (Cbz-Leu-Leu-Leu-aldehyde) | complete cell death | induce EYFP translation | exhibit selective translation of the fluorescent EYFP protein |  |  |  |  |  |  | 
Nc1nc(O)c2ncn(COC(CO)CO)c2n1 [ganciclovir] |  |  |  | 98 to 100 | 83 | does not exhibit any decrease in cell viability | slight decrease | 86 | 99.7 | 33.7
